In general, Ki refers to a dissociation constant, usually derived from enzyme kinetics or from competition with a known ligand.

Read-outs that look alike come from different tables or passages of the source.

Data set [1] addresses T1, β-galactosidase from bovine liver (GH35) (Bos taurus, UniProt Q58D55).
T1 construct: Bovine liver β-galactosidase; from tissue; host or cells: bovine liver
T1 sequence (Q58D55 28-653): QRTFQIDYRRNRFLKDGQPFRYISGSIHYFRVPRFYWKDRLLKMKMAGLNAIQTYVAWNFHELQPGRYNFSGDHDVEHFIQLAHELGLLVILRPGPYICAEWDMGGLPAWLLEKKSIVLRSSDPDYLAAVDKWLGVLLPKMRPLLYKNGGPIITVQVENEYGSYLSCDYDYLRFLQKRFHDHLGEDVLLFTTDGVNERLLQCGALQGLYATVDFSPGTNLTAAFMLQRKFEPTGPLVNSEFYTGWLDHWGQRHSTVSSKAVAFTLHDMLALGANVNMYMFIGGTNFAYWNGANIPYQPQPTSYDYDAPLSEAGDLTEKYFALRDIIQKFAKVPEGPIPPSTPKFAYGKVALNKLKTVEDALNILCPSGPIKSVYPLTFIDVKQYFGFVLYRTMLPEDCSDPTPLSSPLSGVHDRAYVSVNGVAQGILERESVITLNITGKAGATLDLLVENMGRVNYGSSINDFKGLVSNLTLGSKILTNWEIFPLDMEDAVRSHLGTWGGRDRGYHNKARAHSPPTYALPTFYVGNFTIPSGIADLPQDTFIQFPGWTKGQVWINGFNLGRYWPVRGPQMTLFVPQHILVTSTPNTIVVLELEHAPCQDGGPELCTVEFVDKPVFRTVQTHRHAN
The experiment in a line: Ki determination, bovine liver β-galactosidase. Type of data set: biochemical. To be noted: for Ki: 37 °C, pH 7, substrate pNP β-Gal; for fold weaker binding than 17, bovine liver β-galactosidase: compared with hydroxylated inhibitor 17. The procedure:
(§1) Kinetic studies were performed at 37 °C in an appropriate buffer (specific conditions depicted below). In a typical assay, the enzyme was incubated with different inhibitor concentrations for up to 5 min before initiating the reaction by the addition of substrate. The initial reaction rate was measured by monitoring the increase in absorbance at 400 nm for up to ten minutes using a Cary4000 (Varian, Palo Alto, CA, USA). Ki determinations were performed using at least two different substrate concentrations. For each inhibitor, a range of four to six inhibitor concentrations bracketing the ultimately determined Ki value was used for each substrate concentration. Dixon plots (1/v vs. [I]) were constructed to validate the use of competitive inhibition model. The data were then fit using non-linear regression analysis with Grafit 7.0 [Erithacus Software, UK].
(§2) n.i. stands for no inhibition or weak inhibition with an estimated Ki value higher than 1 mM.
Bovine liver β-galactosidase: 50 mM sodium phosphate buffer (pH 7). Substrate: pNP β-Gal, Km = 0.65 mM.

The target in data set [2] is T2, recombinant human lysosomal β-glucocerebrosidase (GCase, GH30) (Homo sapiens, UniProt P04062).
T2 sequence (P04062 40-536): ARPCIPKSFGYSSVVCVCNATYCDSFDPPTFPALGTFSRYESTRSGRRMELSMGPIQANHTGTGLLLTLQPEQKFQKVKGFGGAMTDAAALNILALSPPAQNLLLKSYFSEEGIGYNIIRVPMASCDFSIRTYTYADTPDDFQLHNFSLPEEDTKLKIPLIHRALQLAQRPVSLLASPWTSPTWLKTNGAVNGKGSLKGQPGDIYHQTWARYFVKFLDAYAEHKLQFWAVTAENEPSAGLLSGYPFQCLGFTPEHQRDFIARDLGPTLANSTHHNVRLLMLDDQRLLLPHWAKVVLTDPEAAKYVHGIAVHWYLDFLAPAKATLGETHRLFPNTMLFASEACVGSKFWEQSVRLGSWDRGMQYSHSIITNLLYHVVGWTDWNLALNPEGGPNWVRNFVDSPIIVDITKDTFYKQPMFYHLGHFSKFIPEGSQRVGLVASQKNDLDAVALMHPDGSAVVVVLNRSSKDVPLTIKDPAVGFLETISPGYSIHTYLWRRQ
The experiment in a line: Ki determination, GCase (β-glucocerebrosidase). The format is biochemical. The conditions noted are these: 37 °C, pH 7, substrate 2,4-DNP β-Glc. The procedure:
as §1, §2
GCase (β-glucocerebrosidase): 20 mM sodium citrate, 50 mM sodium phosphate, 1.0 mM tetrasodium EDTA, 0.25% v/v Triton X-100® and 0.25% w/v taurocholic acid buffer (pH 7). Substrate: 2,4-DNP β-Glc, Km = 2.7 mM.

The target in data set [3] is T1, β-galactosidase from bovine liver (GH35). To be noted: read-out: Ki Bovine liver (β-Gal) (GH35); cited from earlier work.
Data set [4] has as its system human skin fibroblasts (R201C). The data set can be described thus: Cell viability and growth of treated fibroblasts. The format is cell-based. To be noted: for cell growth at higher concentrations: concentrations higher than 10 µM, over the incubation time; for cell viability at more than 100 µM: concentrations of more than 100 µM; for influence on cell viability: incubation of the cells up to 10 µM. How it is done:
Cell lines from one GM1-Gangliosidosis-patient (R201C) and one WT, were exposed to compounds 22, 31, and 37, for evaluation of their chaperone effects.
Human skin fibroblasts were grown in minimal essential medium (MEM) with Earle’s Salts (Sigma Aldrich, St. Louis, MO, USA) containing 10% fetal bovine serum, 400 µM L-glutamine, and 50 µg/mL gentamycin at 37 °C and 5% CO2. All cells used in this study were between the third and nineteenth passages.
Fibroblasts were grown to semi-confluency in 6-well plates. Particular chaperone was added to the culture medium at following concentrations: 100–0.02 µmol. Cells were incubated for four additional days at 37 °C. Cells were harvested by scraping and prepared for β-galactosidase and β-hexosaminidase assays as described above.

Data set [5] has as its target T2, recombinant human lysosomal β-glucocerebrosidase (GCase, GH30). The conditions noted are these: read-out: Ki GCase (β-Glc) (GH30); cited from earlier work.
Data set [6] deals with T3, Fabrazyme = commercial recombinant lysosomal α-galactosidase (GH27) (Homo sapiens, UniProt P06280).
T3 construct: purchased
T3 sequence (P06280 32-429): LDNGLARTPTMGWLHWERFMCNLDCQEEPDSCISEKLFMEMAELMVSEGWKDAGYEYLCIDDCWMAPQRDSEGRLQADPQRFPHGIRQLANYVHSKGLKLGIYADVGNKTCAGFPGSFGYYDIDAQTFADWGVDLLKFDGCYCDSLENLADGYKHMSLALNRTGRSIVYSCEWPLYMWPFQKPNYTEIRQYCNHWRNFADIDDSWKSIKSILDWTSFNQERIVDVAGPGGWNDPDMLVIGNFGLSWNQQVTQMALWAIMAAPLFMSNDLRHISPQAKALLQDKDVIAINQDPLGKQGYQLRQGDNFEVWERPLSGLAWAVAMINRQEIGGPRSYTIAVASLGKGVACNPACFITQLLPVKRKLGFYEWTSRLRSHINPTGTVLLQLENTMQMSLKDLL
To be noted: read-out: Ki Fabrazyme (α-Gal) (GH27); cited from earlier work.

Data set [7] concerns the target lac Z β-galactosidase from E. coli (GH2) (Escherichia coli, UniProt P00722). To be noted: read-out: Ki E. coli (β-Gal) (GH2); cited from earlier work.
Data set [8] concerns the target α-glucosidase from S. cerevisiae (GH13). The conditions noted are these: read-out: Ki S. cer. (α-Glc) (GH13); cited from earlier work.

lac Z β-galactosidase from E. coli (GH2), sequence (P00722 2-1024): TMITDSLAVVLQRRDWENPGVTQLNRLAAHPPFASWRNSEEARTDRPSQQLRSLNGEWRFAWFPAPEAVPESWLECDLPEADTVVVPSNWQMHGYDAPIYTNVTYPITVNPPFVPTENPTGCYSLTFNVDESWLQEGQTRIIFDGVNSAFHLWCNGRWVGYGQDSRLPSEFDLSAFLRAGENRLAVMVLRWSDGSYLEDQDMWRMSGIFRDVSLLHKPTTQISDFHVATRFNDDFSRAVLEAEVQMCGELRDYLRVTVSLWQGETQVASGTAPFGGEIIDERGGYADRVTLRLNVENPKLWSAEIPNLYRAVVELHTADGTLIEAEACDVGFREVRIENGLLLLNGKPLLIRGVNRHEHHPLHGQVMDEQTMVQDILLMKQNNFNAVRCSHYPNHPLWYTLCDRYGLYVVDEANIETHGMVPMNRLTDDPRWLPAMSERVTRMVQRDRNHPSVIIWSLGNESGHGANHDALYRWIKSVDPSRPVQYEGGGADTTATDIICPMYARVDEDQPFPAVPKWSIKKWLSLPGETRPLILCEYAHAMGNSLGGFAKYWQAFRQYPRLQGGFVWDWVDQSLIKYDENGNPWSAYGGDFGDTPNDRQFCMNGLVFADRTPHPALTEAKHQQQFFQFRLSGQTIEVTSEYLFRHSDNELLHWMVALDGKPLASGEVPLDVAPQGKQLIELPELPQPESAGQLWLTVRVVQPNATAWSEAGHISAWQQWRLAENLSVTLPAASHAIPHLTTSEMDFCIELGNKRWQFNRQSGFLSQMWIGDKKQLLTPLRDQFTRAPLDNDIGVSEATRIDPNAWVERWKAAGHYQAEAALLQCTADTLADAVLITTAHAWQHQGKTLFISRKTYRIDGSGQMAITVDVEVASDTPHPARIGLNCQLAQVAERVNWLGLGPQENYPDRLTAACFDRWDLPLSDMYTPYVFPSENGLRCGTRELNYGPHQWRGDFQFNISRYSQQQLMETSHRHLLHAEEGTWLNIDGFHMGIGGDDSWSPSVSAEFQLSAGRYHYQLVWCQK

Turning to `CN(C)c1cccc2c(S(=O)(=O)NCCCCCC[C@H]3NC[C@@H](O)[C@@H](O)[C@H]3CO)cccc12` [Compound 22], the results for the Ki in data set [1] and in data set [2] were 0.0005 µM and 0.003 µM, respectively.
Turning to `CCCCCCCCNC1C=C(CO)C(O)C(O)C1O` (stereo not drawn) [Compound 1, N-octyl-epi-valienamine], the results for the Ki in data set [3] and in data set [2] were 0.87 µM and 83 µM, respectively.
`CN(C)c1cccc2c(S(=O)(=O)NCCCCCCN[C@H]3[C@H](F)[C@@H](O)[C@@H](O)[C@H]3CO)cccc12` [Compound 37, (1S,2S,3S,4R,5R)-4-(6′-Dansylaminohexyl)amino-3-fluoro-5-hydroxymethylcyclopentane-1,2-diol]: in data set [1], the Ki is 0.137 µM and the “fold weaker binding than 17, bovine liver β-galactosidase” value is “more than 12 fold”. Further, in data set [4], the “cell growth at higher concentrations” value is “complete arrest of cell growth”, the “cell viability at more than 100 µM” value is reported as “dramatic loss” and the “influence on cell viability” value is reported as “no notable influence”. In addition, in data set [2], the Ki stood at 3 µM.
For the molecule `CN(C)c1cccc2c(S(=O)(=O)NCCCCCCN[C@H]3C[C@@H](O)[C@@H](O)[C@H]3CO)cccc12` [Compound 31, (1R,2S,3R,4S)-3-Hydroxymethyl-4-(6′-dansylaminohexylamino)cyclopentane-1,2-diol], in data set [1], the Ki was found to be 0.102 µM and the “fold weaker binding than 17, bovine liver β-galactosidase” value is about 20 fold. Besides, the “binding energy difference to 17, bovine β-galactosidase” value in data set [1] (corresponding to the 20 fold Ki difference 31 vs 17) is about 2 kcal/mol. In addition, in data set [4], the “cell growth at higher concentrations” value is “complete arrest of cell growth”, the “cell viability at more than 100 µM” value is reported as “dramatic loss” and the “influence on cell viability” value was “no notable influence”. For the same molecule, the Ki in data set [2] was determined as 22.6 µM.
In the case of `CN(C)c1cccc2c(S(=O)(=O)NCCCCCC[C@@H]3NC[C@@H](O)[C@@H](O)[C@H]3CO)cccc12` [Compound 14], the Ki is 1.2 µM in data set [5]; over 1000 µM in data set [6]; 0.0021 µM in data set [7]; 0.0014 µM in data set [3]; over 1000 µM in data set [8].
For `CCCCCCCCN[C@H]1[C@H](O)[C@@H](O)[C@@H](O)[C@H]1CO` [Compound 16], the Ki in data set [1] amounted to 0.117 µM; in data set [2], 0.0639 µM.
Regarding `CN(C)c1cccc2c(S(=O)(=O)NCCCCCCN[C@H]3[C@H](O)[C@@H](O)[C@@H](O)[C@H]3CO)cccc12` [Compound 17], the Ki in data set [5] was 0.0193 µM; in data set [6], 238 µM; in data set [7], 0.0101 µM; in data set [8], over 1000 µM.
